Here are results for 25 compounds from ChEMBL document CHEMBL1129522, “Inhibitors of acyl-CoA:cholesterol O-acyltransferase. 17. Structure-activity relationships of several series of compounds derived from N-chlorosulfonyl isocyanate” (J Med Chem, 1996).

Test [1] deals with T1, Sterol O-acyltransferase 1 (Rattus norvegicus, UniProt O70536).
T1 sequence (O70536 whole entry): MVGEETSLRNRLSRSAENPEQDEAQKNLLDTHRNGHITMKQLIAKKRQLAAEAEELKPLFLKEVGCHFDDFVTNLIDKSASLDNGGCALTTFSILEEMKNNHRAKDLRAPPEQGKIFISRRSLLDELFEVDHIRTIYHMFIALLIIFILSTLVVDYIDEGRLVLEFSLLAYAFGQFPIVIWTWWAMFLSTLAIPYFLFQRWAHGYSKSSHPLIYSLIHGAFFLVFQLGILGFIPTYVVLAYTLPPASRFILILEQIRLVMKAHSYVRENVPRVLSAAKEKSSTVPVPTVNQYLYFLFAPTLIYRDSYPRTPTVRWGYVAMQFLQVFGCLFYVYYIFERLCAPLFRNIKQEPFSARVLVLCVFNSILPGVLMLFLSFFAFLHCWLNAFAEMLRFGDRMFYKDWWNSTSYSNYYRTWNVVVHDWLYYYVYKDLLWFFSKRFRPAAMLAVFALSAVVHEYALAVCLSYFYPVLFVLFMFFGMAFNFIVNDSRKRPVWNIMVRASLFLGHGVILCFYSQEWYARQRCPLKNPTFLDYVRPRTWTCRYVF
Nature of the test: In vitro inhibitory activity against acyl coenzyme A:cholesterol acyltransferase 1 in microsomes of rat liver.

Test [2] has as its system Rattus norvegicus. In words: Acute in vivo activity measured by total plasma cholesterol concentration levels (TC) at 30 mg/kg dose. Format: functional.

What is called IC50 is the concentration needed to halve the response being measured. Read a low IC50 as higher potency. Turning to `CCCCCCCCCCCCN(CCCCCCCCCCCC)S(=O)(=O)NC(=O)Nc1c(C(C)C)cccc1C(C)C`, 69 µM corresponded to half-maximal inhibition in test [1] (IC50). Also, the “Delta TC” value in test [2] is given as -5%.
As to `CC(C)c1cccc(C(C)C)c1OS(=O)(=O)NC(=O)O[C@@H]1C[C@H](C)CCC1C(C)C` (stereo not given in full), the half-inhibitory concentration (IC50) in test [1] came out at 21 µM. Besides, the “Delta TC” value in test [2] is recorded as -40%.
As for `CCCCCCCCCCCCOS(=O)(=O)NC(=O)Sc1c(C(C)C)cccc1C(C)C`, half-maximal inhibition in test [1] (IC50) required 48 µM. In test [2], the “Delta TC” value is on record as -9%.
In test [1], `CC(C)c1ccccc1OC(=O)NS(=O)(=O)Oc1c(C(C)C)cccc1C(C)C` returned an IC50 of more than 50 µM. Moreover, the “Delta TC” value in test [2] is on record as -37%.
Consider `Cc1cc(C)c(C)c(OC(=O)NS(=O)(=O)Oc2c(C(C)C)cccc2C(C)C)c1C`, for which the IC50 in test [1] was more than 50 µM. Further, the “Delta TC” value in test [2] is -17%.
The like results for `COc1cc(OC)c(OC(=O)NS(=O)(=O)Oc2c(C(C)C)cccc2C(C)C)c(OC)c1` were, in that order, more than 25 µM and -5%.
On to `CC(C)c1cc([N+](=O)[O-])cc(C(C)C)c1OC(=O)NS(=O)(=O)Oc1c(C(C)C)cccc1C(C)C`, for which the half-inhibitory concentration (IC50) in test [1] was more than 50 µM. Also, the “Delta TC” value in test [2] was determined as 18%.
For the compound `CCCCCCC(C)OC(=O)NS(=O)(=O)Oc1c(C(C)C)cccc1C(C)C` (stereo not given), 26 µM corresponded to half-maximal inhibition in test [1] (IC50). Moreover, the “Delta TC” value in test [2] is reported as -32%.
Turning to `CCc1cccc(CC)c1COC(=O)NS(=O)(=O)Oc1c(C(C)C)cccc1C(C)C`, the IC50 in test [1] is 20 µM. For the same compound, the “Delta TC” value in test [2] is on record as -2%.
In test [1], `CC(C)c1cccc(C(C)C)c1OS(=O)(=O)NC(=O)Oc1ccc(F)cc1F` yielded an IC50 of more than 50 µM. Moreover, the “Delta TC” value in test [2] was -5%.
On to `CC(C)c1cccc(C(C)C)c1OS(=O)(=O)NC(=O)Oc1c(F)cccc1F`, for which it took 65 µM to reach half-maximal inhibition in test [1] (IC50). In addition, the “Delta TC” value in test [2] is reported as -27%.
Regarding `CC(C)c1cccc(C(C)C)c1OS(=O)(=O)NC(=O)OC12CC3CC(CC(C3)C1)C2`, the IC50 in test [1] was determined as 13 µM. Also, in test [2], the “Delta TC” value is reported as -10%.
The like results for `CC(C)c1cccc(C(C)C)c1OC(=O)NS(=O)(=O)Oc1c(F)cccc1F` were, in that order, 38 µM and 9%.
Turning to `CC(C)c1cccc(C(C)C)c1OS(=O)(=O)NC(=O)Oc1cccnc1`, in test [1], the IC50 was more than 50 µM. For the same compound, the “Delta TC” value in test [2] is reported as -2%.
Regarding `CC(C)c1cccc(C(C)C)c1OC(=O)NS(=O)(=O)Oc1ccc(F)cc1F`, the IC50 in test [1] is more than 50 µM. The “Delta TC” value in test [2] was -11%.
In turn, `Cc1cccc(C)c1OC(=O)NS(=O)(=O)Oc1c(C(C)C)cccc1C(C)C` came in with an IC50 in test [1] of more than 50 µM. For the same compound, the “Delta TC” value in test [2] was -37%.
With `CC(C)c1cc(Cl)cc(C(C)C)c1OC(=O)NS(=O)(=O)Oc1c(C(C)C)cccc1C(C)C`, half-maximal inhibition in test [1] (IC50) was put at 42 µM. The “Delta TC” value in test [2] was determined as 2%.
With `CC(C)c1cccc(C(C)C)c1OC(=O)NS(=O)(=O)Oc1ccccc1`, the IC50 in test [1] is more than 50 µM. Further, the “Delta TC” value in test [2] was -26%.
`CC(C)c1cccc(C(C)C)c1OS(=O)(=O)NC(=O)Oc1ccc(F)cc1` displayed a half-inhibitory concentration (IC50) in test [1] of more than 50 µM. For the same compound, the “Delta TC” value in test [2] was -21%.
In test [1], `CCC(C)N(C(=O)NS(=O)(=O)Oc1c(C(C)C)cccc1C(C)C)C(C)CC` (stereo not given) displayed an IC50 of 12 µM. In addition, in test [2], the “Delta TC” value is given as -20%.
`CC(C)c1cccc(C(C)C)c1OS(=O)(=O)NC(=O)Oc1c(F)c(F)c(F)c(F)c1F`: the 50% inhibitory concentration (IC50) in test [1] was 66 µM. In test [2], the “Delta TC” value was -5%.
`CCOC(=O)[N-]S(=O)(=O)Oc1c(C(C)C)cccc1C(C)C.[Na+]` displayed an IC50 in test [1] of more than 50 µM. For the same compound, in test [2], the “Delta TC” value is 17%.
In the case of `CC(C)c1cccc(C(C)C)c1OC(=O)NS(=O)(=O)Oc1c(C(C)C)cccc1C(C)C`, in test [1], the IC50 was 9.4 µM. Moreover, the “Delta TC” value in test [2] was -70%.
Compound `COc1cc(C(C)(C)C)c(OC(=O)[N-]S(=O)(=O)Oc2c(C(C)C)cccc2C(C)C)c(C(C)(C)C)c1.[Na+]` came in with an IC50 in test [1] of 10 µM. The “Delta TC” value in test [2] is listed as -60%.
In the case of `CC(C)c1cccc(C(C)C)c1OS(=O)(=O)NC(=O)Oc1c(C(C)(C)C)cc(CN(C)C)cc1C(C)(C)C`, it took 22 µM to reach half-maximal inhibition in test [1] (IC50). Also, the “Delta TC” value in test [2] is listed as 2%.
